Data: patent US11103698B2, “Using alternating electric fields to increase cell membrane permeability” (The Board of Trustees of the Leland Stanford Junior …, priority 2018, dated 2021)

Tests used:
[1] = tested on: KR158B murine astrocytoma cell line; assay: Bioluminescence imaging of Renilla luciferase-expressing astrocytoma cells under TTFields (coelenterazine substrate); type: cell-based; conditions: TTFields exposure vs no TTFields
Text: Renilla luciferase activity is not dependent upon ATP and magnesium (as opposed to firefly luciferase). Thus, it is believed that the induction of bioluminescence by TTFields was not due to alterations in endogenous pools of ATP.

[2] = tested on: MCF-7 cells, mitoxantrone resistant; assay: Intracellular accumulation of mitoxantrone under alternating electric fields; type: cell-based, human; conditions: 150 kHz, 1.62 V/cm, 23 h, then mitoxantrone 2 μM for 1 h with field; vs no field
Experimental: (§1) The intracellular accumulation of mitoxantrone was then measured.

[3] = tested on: MCF-7 human breast adenocarcinoma cells, wild type; assay: as above; type: cell-based; conditions: 150 kHz, 1.62 V/cm, 23 h, then mitoxantrone 2 μM for 1 h with field; vs no field
Experimental: as §1

U87-MG/eGFP-fLuc cells [4] = tested on: U87-MG/eGFP-fLuc cells
Experimental: U87-MG/eGFP-fLuc cells were seeded on Thermanox glass coverslips, allowed to settle and grow, and then subjected to either TTFields or no TTFields.
To assess the reversibility of the effect of TTFields on cancer cells, U87-MG/eGFP-fLuc cells were subjected to three conditions: (1) No TTFields exposure, standard cell culture conditions (37° C., 95% 02, 5% CO2), (2) TTFields exposure for 24 h and (3) TTFields exposure for 24 h followed by no TTFields exposure for 24 h. The readouts of BLI, PpIX fluorescence (5-ALA product) and Dextran-FITC (4 kDa) fluorescence were acquired. All experimental conditions were done in triplicate.
Briefly, cells in culture were trypsinized via standard protocols and 10,000-50,000 single cells were suspended in 200 or 75 μL of DMEM/10% FBS/1×antibiotic-antimycotic and then were seeded onto the center of a 22 mm or 12 mm diameter glass Thermanox™ coverslips respectively (ThermoFisher Scientific, Waltham, Mass., USA). The cells were incubated overnight in a humidified 95% air/5% CO2 incubator set at 37° C. Once the cells became attached to the coverslip, 2 mL or 1 mL of DMEM/10% FBS/lx antibiotic-antimycotic was added per well of 6-well or 12-well plates, respectively. […]

U87-MG cells [5] = assay: 7-AAD accumulation by flow cytometry under alternating electric fields; type: cell-based, human; conditions: 300 kHz, 1.62 V/cm RMS, 24 h; 7-AAD introduced 15 minutes prior to cessation of the field (other timings after cessation: no significant increase)
Experimental: FIG. 7D depicts the results of an experiment to test how quickly the permeability drops back down after cessation of the alternating electric fields. More specifically, 7-Aminoactinomycin D (7-AAD) is a fluorescent chemical compound with a strong affinity for DNA. […] 7-AAD was introduced into samples at five different times: 15 minutes prior to the cessation of the alternating electric field; immediately after cessation of the alternating electric field; and 15, 30, and 60 minutes after cessation of the alternating electric field. In each case, the cells were incubated with 7-AAD for 30 minutes after introduction of the 7-AAD, followed by flow cytometry analysis of the percentage of cells with increased accumulation of the fluorescent 7-AAD for each of the different timings.
After this 15 minute period, alternating electric field application was terminated and the cells were incubated at room temperature for an additional 15 minutes, followed by flow cytometry analysis of the percentage of cells with increased accumulation of the fluorescent 7-AAD for each of the different frequencies.

[6] = tested on: MDA-MB-435 human melanoma cell line cells; assay: as above; type: cell-based; conditions: 150 kHz, 1.62 V/cm, 24 h
Experimental: After this 15 minute period, alternating electric field application was terminated and the cells were incubated at room temperature for an additional 15 minutes.
After this 24 hour period, the alternating electric fields were turned off for 15 minutes, after which the 7-AAD was added. After waiting an additional 15 minutes, the percentage of cells with increased accumulation of the fluorescent 7-AAD was determined using flow cytometry.

GBM39 cells (GBM39/Luc) = assay: Sensitivity to drug and synergy with TTFields; type: cell-based, human; conditions: for synergy of combination with TTFields: GBM39/Luc; for sensitivity of cells to various concentrations of drug: TTFields for 3 days vs no TTFields
MDA-MB-235 cells = assay: Sensitivity to drug and synergy with TTFields; type: cell-based
MES-SA cells = assay: Intracellular accumulation of doxorubicin under 150 kHz alternating electric fields; type: cell-based; conditions: 1.62 V/cm RMS, 24 h, doxorubicin 10 μM for last hour, vs untreated with field
[7] = tested on: MDA-MB-435 cells, wild type; assay: Intracellular accumulation of doxorubicin under alternating electric fields; type: cell-based, human; conditions: 150 kHz, 1.62 V/cm, 23 h, then doxorubicin 10 μM for 1 h with field; vs no field
[8] = tested on: MDA-MB-435 cells, doxorubicin resistant; assay: as above; type: cell-based, human; conditions: 150 kHz, 1.62 V/cm, 23 h, then doxorubicin 10 μM for 1 h with field; vs no field
[9] = target: T1, purified firefly luciferase (Photinus pyralis, UniProt P08659); assay: Activity of purified firefly luciferase exposed to TTFields; type: biochemical; conditions: 200 kHz TTFields, 60 minutes after initiation
T1 construct: purchased Sigma Aldrich Inc (St. Louis, Mo.) SRE0045-2 MG

U87-MG/GFP-Luc cells = assay: Sensitivity to drug and synergy with TTFields; type: cell-based, human
[10] = tested on: U87-MG GBM on PCS-201 fibroblast co-cultures; assay: 5-ALA uptake (PpIX fluorescence) in glioblastoma-fibroblast co-culture under TTFields; type: cell-based, human
U87-MG cells [11] = assay: 5-ALA uptake (PpIX fluorescence) under TTFields, single culture; type: cell-based, human
Experimental: Experiments were performed to determine the effects of TTFields on uptake of 5-ALA (as measured by PpIX accumulation and its resultant fluorescence) in glioblastoma cells. Because it is difficult to distinguish the margin between tumor and normal cells using the present 5-ALA bioassay, the measurement of PpIX fluorescence was used to address this issue. Investigations were run to determine whether permeation of 5-ALA through the cellular membrane and into the glioblastoma cells could be increased with TTFields exposure. U87-MG cells were exposed or unexposed to TTFields, each for durations of 6-24 h.
All monovariant statistical comparisons between no TTFields vs. TTFields samples done by Student's t-test for n=3 experiments per time point.

human glioblastoma cells = assay: Growth inhibition by TTFields in conjunction with compound; type: cell-based
Text: In this figure, 5-ALA=5-aminolevulinic acid; Ethidium D=ethidium bromide; and FITC=fluorescein isothiocyanate.

U87-MG/eGFP-fLuc cells [12] = assay: Annexin-V-APC binding (apoptosis positive control), fluorescence microscopy; type: cell-based, human; conditions: 21 μM, positive control for apoptosis, TTFields-unexposed
Experimental: To test if the imposition of TTFields affects cell membrane properties, and thus membrane permeability, the effect of TTFields on the behavior of fluorescently tagged reagents that bind to the cellular membrane was determined. Initially, the impact of TTFields on the binding of Annexin-V-APC to the membrane of U87-MG/eGFP-fLuc cells was measured. Annexin-V-APC binding is a signature of early apoptosis which is characterized by ruffling of the membrane.

[13] = TTFields for 3 days vs no TTFields

T1 sequence (P08659 whole entry): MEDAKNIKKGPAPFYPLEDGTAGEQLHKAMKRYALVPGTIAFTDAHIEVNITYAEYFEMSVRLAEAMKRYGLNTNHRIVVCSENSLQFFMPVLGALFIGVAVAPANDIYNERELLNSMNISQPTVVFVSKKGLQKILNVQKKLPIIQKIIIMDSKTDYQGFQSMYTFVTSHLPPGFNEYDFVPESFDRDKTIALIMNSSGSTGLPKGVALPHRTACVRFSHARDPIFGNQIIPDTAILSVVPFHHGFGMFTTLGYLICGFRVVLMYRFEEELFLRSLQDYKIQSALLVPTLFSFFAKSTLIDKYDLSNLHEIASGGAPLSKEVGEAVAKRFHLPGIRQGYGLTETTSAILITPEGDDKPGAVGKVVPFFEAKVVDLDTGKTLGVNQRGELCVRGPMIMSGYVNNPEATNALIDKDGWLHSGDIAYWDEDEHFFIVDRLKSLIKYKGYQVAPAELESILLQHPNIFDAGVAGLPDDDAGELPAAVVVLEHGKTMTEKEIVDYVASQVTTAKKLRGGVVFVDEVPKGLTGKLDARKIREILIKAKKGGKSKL

Oc1ccc(Cc2nc3c(Cc4ccccc4)nc(-c4ccc(O)cc4)cn3c2O)cc1 [coelenterazine]
permeation of the luciferase substrate through the plasma membrane (bioluminescence) [1]: increased permeation

O=C1c2c(O)ccc(O)c2C(=O)c2c(NCCNCCO)ccc(NCCNCCO)c21 [mitoxantrone]
intracellular accumulation of mitoxantrone [2]: increased
intracellular accumulation of mitoxantrone [3]: increased

O=C(O)[C@H]1CSC(c2nc3ccc(O)cc3s2)=N1 [D-luciferin]
permeation of the luciferase substrate through the plasma membrane (bioluminescence) (U87-MG/eGFP-fLuc cells [4]; TTFields exposure vs no TTFields): increased permeation
uptake (BLI flux), reversibility (U87-MG/eGFP-fLuc cells [4]; no TTFields vs TTFields 24 h vs TTFields 24 h followed by no TTFields 24 h, FIG. 7A): reversibly increase uptake

Cc1c2oc3c(C)c(N)cc(C(=O)N[C@@H]4C(=O)N[C@H](C(C)C)C(=O)N5CCC[C@H]5C(=O)N(C)CC(=O)N(C)[C@@H](C(C)C)C(=O)O[C@@H]4C)c3nc-2c(C(=O)N[C@@H]2C(=O)N[C@H](C(C)C)C(=O)N3CCC[C@H]3C(=O)N(C)CC(=O)N(C)[C@@H](C(C)C)C(=O)O[C@@H]2C)c(N)c1=O [7-AAD, 7-Aminoactinomycin D]
accumulation of 7-AAD (percentage of cells with increased accumulation) (U87-MG cells [5]): significant increase
percentage of cells with increased accumulation of 7-AAD ([6]; 7-AAD added for last 15 min while field continued): ~66%
percentage of cells with increased accumulation of 7-AAD ([6]; fields turned off for 15 minutes before 7-AAD was added): ~20%

CCc1c2c(nc3ccc(OC(=O)N4CCC(N5CCCCC5)CC4)cc13)-c1cc3c(c(=O)n1C2)COC(=O)[C@]3(O)CC [Irinotecan]
synergy of combination with TTFields (GBM39 cells (GBM39/Luc)): synergy was found
sensitivity of cells to various concentrations of drug (GBM39 cells (GBM39/Luc); GBM39/Luc cells): improves the sensitivity

COc1cccc2c1C(=O)c1c(O)c3c(c(O)c1C2=O)C[C@@](O)(C(=O)CO)C[C@@H]3O[C@H]1C[C@H](N)[C@H](O)[C@H](C)O1 [doxorubicin]
synergy of combination with TTFields (MDA-MB-235 cells): Evidence of synergy
sensitivity of cells to various concentrations of drug (MDA-MB-235 cells; [13]): improves the sensitivity
increase in intracellular accumulation of doxorubicin (MES-SA cells): more than 2 ×
intracellular accumulation of doxorubicin [7]: increased
intracellular accumulation of doxorubicin [8]: increased

firefly luciferase: purified firefly luciferase enzyme (Sigma Aldrich SRE0045-2 MG)
loss in enzymatic activity [9]: > 1000 fold

O=NN(CCCl)C(=O)NC1CCCCC1 [Lomustine]
sensitivity of cells to various concentrations of drug (GBM39 cells (GBM39/Luc); GBM39 cells): improves the sensitivity
sensitivity of cells to various concentrations of drug (U87-MG/GFP-Luc cells; [13]): improves the sensitivity
sensitivity of cells to various concentrations of drug (pcGBM2/GFP-Luc cells; [13]): improves the sensitivity

NCC(=O)CCC(=O)O [5-ALA, 5-aminolevulinic acid]
ratio of PpIX fluorescence intensity in U87-MG cells over surrounding PCS-201 fibroblast cells ([10]; 24 h TTFields vs no TTFields, p=0.043): significantly increased
rate of PpIX fluorescence intensity increase ([10]; TTFields-exposed vs unexposed co-cultures, 2, 6, 24 h, p<0.001): significantly augmented
uptake of 5-ALA (PpIX fluorescence) (U87-MG cells [11]; 6 h TTFields vs no TTFields, p=0.047): significantly increased uptake
uptake of 5-ALA (PpIX fluorescence) (U87-MG cells [11]; 24 h TTFields vs no TTFields, p=0.011): increase was maintained
uptake (PpIX fluorescence), reversibility (U87-MG cells [11]; no TTFields vs TTFields 24 h vs TTFields 24 h followed by no TTFields 24 h, FIG. 7B): reversibly increase uptake

CC1=C(CO)C(=O)O[C@@H]([C@@H](C)[C@H]2CC[C@H]3[C@@H]4C[C@H]5O[C@]56[C@@H](O)C=CC(=O)[C@]6(C)[C@H]4CC[C@]23C)C1 [Withaferin A]
synergy of combination with TTFields (GBM39 cells (GBM39/Luc)): synergy was found
growth inhibition in conjunction with TTFields (human glioblastoma cells): synergistically inhibited
synergy of combination with TTFields (U87-MG/GFP-Luc cells): synergy was found
synergy of combination with TTFields (pcGBM2/GFP-Luc cells): synergy was found
Annexin-V-APC binding to cells (early apoptosis) (U87-MG/eGFP-fLuc cells [12]): could be visualized
